According to patent EP3064205A1, “Therapeutic use of isomeric forms of 2-(4-chlorophenyl)quinolin-4-yl)(piperidin-2-yl)methanol” (Glionova AB, priority 2015, dated 2016):
Read-outs that look alike come from different tables or passages of the source.

Experiments:
Test in all cases: 3D clonogenic assay (PDX)
Type in all cases: cell-based, human
CXF 1783 = settings: CXF 1783, Colorectal; for IC50: Homo sapiens
Protocol: (§1) The anti-tumor efficacy of S1 in the patient-derived tumor xenograft (PDX) tumor panel was assessed, where the efficacy of S1 in PDX tumor panel in the 96-well format, in 10 concentrations in duplicate was performed. Colony formation of tumor cell suspensions in a soft-agar matrix was observed and quantified. The output is IC50 values and dose response-relationships based on number of colonies in control and treatment wells, as identified by an automated image analysis algorithm. Stock solution of S1 was prepared in 100% DMSO at 10 mM concentration (stored at -20°C) and reused for each experiment. Compound final test concentrations: Dilution series ½ i.e.: 50µM, 15, 5, 1.5, 0.5, 0.15, 0.05, 0.015, 0.005 and 0.0015.
(§2) Tumor xenografts (also referred to as patient-derived tumor xenografts) were passaged as subcutaneous xenografts in NMRI nu/nu mice. Tumor xenograft were removed from mice under sterile conditions, mechanically disaggregated and subsequently incubated with an enzyme cocktail consisting of collagenase type IV (41 U/mL), DNase I (125 U/mL), hyaluronidase type III (100 U/mL) and dispase II (1.0 U/mL) in RPMI 1640 medium at 37°C for 60 - 120 minutes. Cells were passed through sieves of 100 µm and 40 µm mesh size and washed with RPMI 1640 medium. The percentage of viable cells was determined in a Neubauer-hemocytometer using trypan blue exclusion. Aliquots of the cells were frozen down, and stored in liquid nitrogen.
(§3) The clonogenic assay test was carried out in 96 well plate format. For each test a frozen aliquot of tumor cells prepared from tumor xenografts was thawed and assay plates were prepared as follows: each test well contained 3 layers of equal volume, 2 layers of semi-solid medium (bottom and top layer), and one layer of medium supernatant, with or without test compound. The bottom layer consisted of 0.05 mL/well Iscove's Modified Dulbecco's Medium (Invitrogen), supplemented with 20% (v/v) fetal calf serum (Sigma), 0.01% (w/v) gentamicin (Invitrogen) and 0.75% (w/v) agar (BD Biosciences). Tumor cells were added to 0.05 mL of the same culture medium supplemented with 0.4% (w/v) agar and plated onto the bottom layer. After 24 h, test compounds were added after serial dilution in DMSO and transfer in cell culture medium, and left on the cells for the duration of the experiment (continuous exposure, 0.05 mL drug overlay). Every dish included six untreated control wells and drug-treated groups in duplicate at 10 concentrations. Cultures were incubated at 37 °C and 7.5% CO2 in a humidified atmosphere for 8 to 13 days and monitored closely for colony growth using an inverted microscope. Within this period, ex vivo tumor growth lead to the formation of colonies with a diameter of >50 µm. At the time of maximum colony formation, counts were performed with an automatic image analysis system. 24 h prior to evaluation, vital colonies were stained with a sterile aqueous solution of 2-(4-iodophenyl)-3-(4-nitrophenyl)-5-phenyltetrazolium chloride (1 mg/mL, 100 µL/well). Sigmoidal concentration-response curves were fitted to the data points obtained for each tumor model using 4 parameter non-linear curve fit (Oncotest Warehouse Software). IC50 values are reported as relative IC50 values, being the concentration of test compound that give a response (inhibition of colony formation/viability) half way between the top and bottom plateau of the sigmoidal concentration-response curve (inflection point of the curve), or as absolute IC50 values, being the concentration of test compound at the intersection of the concentration-response curves with T/C = 50%. For calculation of mean IC50 values the geometric mean was used. Results are presented as mean graph plots or heat maps (individual IC50 values relative to the geometric mean IC50 value) over all cell lines as tested.

CXF 647 = settings: CXF 647, Colorectal; for IC50: Homo sapiens
Protocol: as §1, §2, §3

GXF 1172 = settings: GXF 1172, Gastric; for IC50: Homo sapiens
Protocol: as §1, §2, §3

LXFA 923 = settings: LXFA 923, Lung Adeno; for IC50: Homo sapiens
Protocol: as §1, §2, §3

LXFE 397 = settings: LXFE 397, Lung Epidermoid; for IC50: Homo sapiens
Protocol: as §1, §2, §3

MAXF 1162 = settings: MAXF 1162, Breast; for IC50: Homo sapiens
Protocol: as §1, §2, §3

MEXF 274 = settings: MEXF 274, Melanoma; for IC50: Homo sapiens
Protocol: as §1, §2, §3

OVXF 1353 = settings: OVXF 1353, Ovarian; for IC50: Homo sapiens
Protocol: as §1, §2, §3

PAXF 1900 = settings: PAXF 1900, Pancreas; for IC50: Homo sapiens
Protocol: as §1, §2, §3

PAXF 2053 = settings: PAXF 2053, Pancreas; for IC50: Homo sapiens
Protocol: as §1, §2, §3

PAXF 2116 = settings: PAXF 2116, Pancreas; for IC50: Homo sapiens
Protocol: as §1, §2, §3

SXFS 1937 = settings: SXFS 1937, Sarcoma Soft Tissue; for IC50: Homo sapiens
Protocol: as §1, §2, §3

IC50 (CXF 1783; read-out: abs. IC50): 9.26 µM | IC50 (CXF 1783; read-out: rel. IC50): 8.81 µM | IC50 (CXF 647; read-out: abs. IC50): 24.2 µM | IC50 (CXF 647; read-out: rel. IC50): 16.5 µM | IC50 (GXF 1172; read-out: abs. IC50): 12.8 µM | IC50 (GXF 1172; read-out: rel. IC50): 12.5 µM | IC50 (LXFA 923; read-out: abs. IC50): 8.55 µM | IC50 (LXFA 923; read-out: rel. IC50): 8.44 µM | IC50 (LXFE 397; read-out: abs. IC50): 5.14 µM | IC50 (LXFE 397; read-out: rel. IC50): 4.77 µM | IC50 (MAXF 1162; read-out: abs. IC50): 4.64 µM | IC50 (MAXF 1162; read-out: rel. IC50): 4.63 µM | IC50 (MEXF 274; read-out: abs. IC50): 8.84 µM | IC50 (MEXF 274; read-out: rel. IC50): 8.69 µM | IC50 (OVXF 1353; read-out: abs. IC50): 4.91 µM | IC50 (OVXF 1353; read-out: rel. IC50): 4.72 µM | IC50 (PAXF 1900; read-out: abs. IC50): 13.2 µM | IC50 (PAXF 1900; read-out: rel. IC50): 12.2 µM | IC50 (PAXF 2053; read-out: abs. IC50): 5.87 µM | IC50 (PAXF 2053; read-out: rel. IC50): 5.67 µM | IC50 (PAXF 2116; read-out: abs. IC50): 9.16 µM | IC50 (PAXF 2116; read-out: rel. IC50): 8.85 µM | IC50 (SXFS 1937; read-out: abs. IC50): 10.1 µM | IC50 (SXFS 1937; read-out: rel. IC50): 9.9 µM
Compound: O[C@H](c1cc(-c2ccc(Cl)cc2)nc2ccccc12)[C@@H]1CCCCN1 [S1, (R)-(2-(4-chlorophenyl)quinolin-4-yl)((S)-piperidin-2-yl)methanol]
b (bottom plateau of concentration-effect curve) (CXF 1783): 42 | t (top plateau of concentration-effect curve) (CXF 1783): 100 | b (bottom plateau of concentration-effect curve) (CXF 647): 20 | t (top plateau of concentration-effect curve) (CXF 647): 97 | b (bottom plateau of concentration-effect curve) (GXF 1172): 28 | t (top plateau of concentration-effect curve) (GXF 1172): 79 | b (bottom plateau of concentration-effect curve) (LXFA 923): 21 | t (top plateau of concentration-effect curve) (LXFA 923): 101 | b (bottom plateau of concentration-effect curve) (LXFE 397): 35 | t (top plateau of concentration-effect curve) (LXFE 397): 100 | b (bottom plateau of concentration-effect curve) (MAXF 1162): 12 | t (top plateau of concentration-effect curve) (MAXF 1162): 90 | b (bottom plateau of concentration-effect curve) (MEXF 274): 17 | t (top plateau of concentration-effect curve) (MEXF 274): 103 | b (bottom plateau of concentration-effect curve) (OVXF 1353): 23 | t (top plateau of concentration-effect curve) (OVXF 1353): 101 | b (bottom plateau of concentration-effect curve) (PAXF 1900): 33 | t (top plateau of concentration-effect curve) (PAXF 1900): 114 | b (bottom plateau of concentration-effect curve) (PAXF 2053): 18 | t (top plateau of concentration-effect curve) (PAXF 2053): 101 | b (bottom plateau of concentration-effect curve) (PAXF 2116): 32 | t (top plateau of concentration-effect curve) (PAXF 2116): 112 | b (bottom plateau of concentration-effect curve) (SXFS 1937): 18 | t (top plateau of concentration-effect curve) (SXFS 1937): 120
